Measurements: US20260022142A1, “MACROCYCLIC IMMUNOMODULATORS” (Bristol-Myers Squibb Company, priority 2022, published 2026)
Bridge positions count the residues as written; N and C are the ends. Square brackets hold non-standard residues; d marks the D form. Peptide text beside a SMILES is read from it. * marks the point of attachment. Phe(4-COOH) = N[C@@H](Cc1ccc(C(=O)O)cc1)C(=O)O; Bip = N[C@@H](Cc1ccc(-c2ccccc2)cc1)C(=O)O; Phe(3-Me) = Cc1cccc(C[C@H](N)C(=O)O)c1; hArg = N=C(N)NCCCC[C@H](N)C(=O)O; 4Pal = N[C@@H](Cc1ccncc1)C(=O)O; Cha = N[C@@H](CC1CCCCC1)C(=O)O; Cit = NC(=O)NCCC[C@H](N)C(=O)O; Carboxymethyl = O=C(O)C*; Orn = NCCC[C@H](N)C(=O)O; Aun = NCCCCCCCCCCC(=O)O; Dab = NCC[C@H](N)C(=O)O; Dap = NC[C@H](N)C(=O)O; AEEA = NCCOCCOCC(=O)O

target: T1, PD-1/PD-L1 interaction (PE-labeled human PD-L1-Ig binding to Jurkat cell line over-expressing human PD-1) (Homo sapiens, UniProt Q15116); assay: Jurkat-PD-1 Cell Binding High-Content Screening Assay (CBA); assay type: cell-based; settings: Jurkat cell line over-expressing human PD-1; PE-labeled PD-L1-Ig 20 nM final; read-out: Jurkat hPD1-PDL1 IC50
T1 construct: expressed in transfected cells; host or cells: Jurkat
T1 sequence (Q15116 25-288): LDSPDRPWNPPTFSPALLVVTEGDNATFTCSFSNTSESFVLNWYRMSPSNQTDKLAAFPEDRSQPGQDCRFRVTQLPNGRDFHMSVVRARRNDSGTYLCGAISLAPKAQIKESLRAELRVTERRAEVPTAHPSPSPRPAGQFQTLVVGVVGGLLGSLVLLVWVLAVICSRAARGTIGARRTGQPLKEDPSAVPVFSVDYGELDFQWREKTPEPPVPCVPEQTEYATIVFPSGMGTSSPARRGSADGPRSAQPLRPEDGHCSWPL
Outline: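 Read-out is high-content imaging of cell-bound phycoerythrin-tagged PD-L1-Ig on fixed, Hoechst-counterstained Jurkat cells that over-express human PD-1. Compound exposure lasts 2 h at 37° C before the labeled ligand (20 nM final) is added for a further hour.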

Structure (SMILES)	IC50 [nM]
CC(C)C[C@H]1NC(=O)[C@H](CCCN)NC(=O)[C@H](C(C)C)NC(=O)[C@H](Cc2ccc(-c3ccccc3)cc2)NC(=O)[C@H](C(C)C)NC(=O)[C@H](Cc2c[nH]c3ccccc23)NC(=O)[C@H](CC(=O)O)NC(=O)[C@H](Cc2ccc(OCC(=O)O)cc2)NC(=O)[C@H](CCCCNC(=N)N)NC(=O)CSC[C@@H](C(=O)N[C@@H](CCN)C(=O)NCCOCCOCC(=O)NCCCCCCCCCCC(=O)O)NC(=O)[C@H](CN)NC(=O)[C@H](C(C)C)NC(=O)[C@H](CC2CCCCC2)NC(=O)[C@H](CC(N)=O)NC1=O [Compound 3214] ({CH2CO}-[hArg]Y(Carboxymethyl)DWV[Bip]V[Orn][dL]N[Cha]V[Dap]C[Dab][AEEA][Aun]-OH; thioether N-14)	22.8
CC(C)C[C@H]1NC(=O)[C@H](CCCN)NC(=O)[C@H](C(C)C)NC(=O)[C@H](Cc2ccc(-c3ccccc3)cc2)NC(=O)[C@H](C(C)C)NC(=O)[C@H](Cc2c[nH]c3ccccc23)NC(=O)[C@H](CC(=O)O)NC(=O)[C@H](Cc2ccc(OCC(=O)O)cc2)NC(=O)[C@H](CCCCNC(=N)N)NC(=O)CSC[C@@H](C(=O)N[C@@H](CCN)C(=O)NCCOCCOCC(=O)NCCCCCCCCCCC(=O)O)NC(=O)[C@H](CCN)NC(=O)[C@H](C(C)C)NC(=O)[C@H](CC2CCCCC2)NC(=O)[C@H](CC(N)=O)NC1=O [Compound 3215] ({CH2CO}-[hArg]Y(Carboxymethyl)DWV[Bip]V[Orn][dL]N[Cha]V[Dab]C[Dab][AEEA][Aun]-OH; thioether N-14)	25.3
CC(C)C[C@H]1NC(=O)[C@H](CCCN)NC(=O)[C@H](C(C)C)NC(=O)[C@H](Cc2ccc(-c3ccccc3)cc2)NC(=O)[C@H](C(C)C)NC(=O)[C@H](Cc2c[nH]c3ccccc23)NC(=O)[C@H](CC(=O)O)NC(=O)[C@H](Cc2ccc(OCC(=O)O)cc2)NC(=O)[C@H](CCCCNC(=N)N)NC(=O)CSC[C@@H](C(=O)N[C@@H](CCN)C(=O)NCCOCCOCC(=O)NCCCCCCCCCCC(=O)O)NC(=O)[C@H](CCCN)NC(=O)[C@H](C(C)C)NC(=O)[C@H](CC2CCCCC2)NC(=O)[C@H](CC(N)=O)NC1=O [Compound 3216] ({CH2CO}-[hArg]Y(Carboxymethyl)DWV[Bip]V[Orn][dL]N[Cha]V[Orn]C[Dab][AEEA][Aun]-OH; thioether N-14)	35.2
CC(C)C[C@H]1NC(=O)[C@H](CCCN)NC(=O)[C@H](C(C)C)NC(=O)[C@H](Cc2ccc(-c3ccccc3)cc2)NC(=O)[C@H](C(C)C)NC(=O)[C@H](Cc2c[nH]c3ccccc23)NC(=O)[C@H](CC(=O)O)NC(=O)[C@H](Cc2ccc(OCC(=O)O)cc2)NC(=O)[C@H](CCCCNC(=N)N)NC(=O)CSC[C@@H](C(=O)N[C@@H](CCN)C(=O)NCCOCCOCC(=O)NCCCCCCCCCCC(=O)O)NC(=O)[C@H](CCCCN)NC(=O)[C@H](C(C)C)NC(=O)[C@H](CC2CCCCC2)NC(=O)[C@H](CC(N)=O)NC1=O [Compound 3217] ({CH2CO}-[hArg]Y(Carboxymethyl)DWV[Bip]V[Orn][dL]N[Cha]VKC[Dab][AEEA][Aun]-OH; thioether N-14)	17.9
CC(C)C[C@H]1NC(=O)[C@H](CCCN)NC(=O)[C@H](C(C)C)NC(=O)[C@H](Cc2ccc(-c3ccccc3)cc2)NC(=O)[C@H](C(C)C)NC(=O)[C@H](Cc2c[nH]c3ccccc23)NC(=O)[C@H](CC(=O)O)NC(=O)[C@H](Cc2ccc(OCC(=O)O)cc2)NC(=O)[C@H](CCCCNC(=N)N)NC(=O)CSC[C@@H](C(=O)N[C@@H](CCCNC(N)=O)C(=O)NCCOCCOCC(=O)NCCCCCCCCCCC(=O)O)NC(=O)[C@H](CCCN)NC(=O)[C@H](C(C)C)NC(=O)[C@H](CC2CCCCC2)NC(=O)[C@H](CC(N)=O)NC1=O [Compound 3218] ({CH2CO}-[hArg]Y(Carboxymethyl)DWV[Bip]V[Orn][dL]N[Cha]V[Orn]C[Cit][AEEA][Aun]-OH; thioether N-14)	26.9
Cc1cccc(C[C@@H]2NC(=O)[C@H](CC(=O)O)NC(=O)[C@H](Cc3ccc(OCC(=O)O)cc3)NC(=O)[C@H](CCCNC(=N)N)NC(=O)CSC[C@@H](C(=O)N[C@@H](CCCCN)C(=O)NCCCCCCCCCCC(=O)O)NC(=O)[C@H](CCCN)NC(=O)[C@H](C(C)C)NC(=O)[C@H](CC3CCCCC3)NC(=O)[C@H](CCN)NC(=O)[C@@H](CC(C)C)NC(=O)[C@H](CCCN)NC(=O)[C@H](C(C)C)NC(=O)[C@H](Cc3ccc(-c4ccccc4)cc3)NC(=O)[C@H](C(C)C)NC2=O)c1 [Compound 3219] ({CH2CO}-RY(Carboxymethyl)D[Phe(3-Me)]V[Bip]V[Orn][dL][Dab][Cha]V[Orn]CK[Aun]-OH; thioether N-14)	9.6
Cc1cccc(C[C@@H]2NC(=O)[C@H](CC(=O)O)NC(=O)[C@H](Cc3ccc(OCC(=O)O)cc3)NC(=O)[C@H](CCCNC(=N)N)NC(=O)CSC[C@@H](C(=O)NCCOCCOCC(=O)N[C@@H](CCN)C(=O)NCCCCCCCCCCC(=O)O)NC(=O)[C@H](CN)NC(=O)[C@H](C(C)C)NC(=O)[C@H](CC3CCCCC3)NC(=O)[C@H](CCN)NC(=O)[C@@H](CC(C)C)NC(=O)[C@H](CCCN)NC(=O)[C@H](C(C)C)NC(=O)[C@H](Cc3ccc(-c4ccccc4)cc3)NC(=O)[C@H](C(C)C)NC2=O)c1 [Compound 3220] ({CH2CO}-RY(Carboxymethyl)D[Phe(3-Me)]V[Bip]V[Orn][dL][Dab][Cha]V[Dap]C[AEEA][Dab][Aun]-OH; thioether N-14)	11.5
CC(C)C[C@H]1NC(=O)[C@H](CCCN)NC(=O)[C@H](C(C)C)NC(=O)[C@H](Cc2ccc(-c3ccccc3)cc2)NC(=O)[C@H](C(C)C)NC(=O)[C@H](Cc2c[nH]c3ccccc23)NC(=O)[C@H](CC(=O)O)NC(=O)[C@H](Cc2ccc(C(=O)O)cc2)NC(=O)[C@H](Cc2ccc(OCC(=O)O)cc2)NC(=O)CSC[C@@H](C(=O)NCC(=O)NCCOCCOCC(=O)N[C@@H](CCCN)C(=O)NCCCCCCCCCCC(=O)O)NC(=O)[C@H](CCCN)NC(=O)[C@H](C(C)C)NC(=O)[C@H](CC2CCCCC2)NC(=O)[C@H](CCN)NC1=O [Compound 3228] ({CH2CO}-Y(Carboxymethyl)[Phe(4-COOH)]DWV[Bip]V[Orn][dL][Dab][Cha]V[Orn]CG[AEEA][Orn][Aun]-OH; thioether N-14)	9.8
CC(C)C[C@H]1NC(=O)[C@H](CCCN)NC(=O)[C@H](C(C)C)NC(=O)[C@H](Cc2ccc(-c3ccccc3)cc2)NC(=O)[C@H](C(C)C)NC(=O)[C@H](Cc2c[nH]c3ccccc23)NC(=O)[C@H](CC(=O)O)NC(=O)[C@H](Cc2ccc(OCC(=O)O)cc2)NC(=O)[C@H](Cc2ccc(OCC(=O)O)cc2)NC(=O)CSC[C@@H](C(=O)NCC(=O)NCCOCCOCC(=O)N[C@@H](CCCN)C(=O)NCCCCCCCCCCC(=O)O)NC(=O)[C@H](CCCN)NC(=O)[C@H](C(C)C)NC(=O)[C@H](CC2CCCCC2)NC(=O)[C@H](CCN)NC1=O [Compound 3229] ({CH2CO}-Y(Carboxymethyl)Y(Carboxymethyl)DWV[Bip]V[Orn][dL][Dab][Cha]V[Orn]CG[AEEA][Orn][Aun]-OH; thioether N-14)	6.9
CC(C)C[C@H]1NC(=O)[C@H](CCCN)NC(=O)[C@H](C(C)C)NC(=O)[C@H](Cc2ccc(-c3ccccc3)cc2)NC(=O)[C@H](C(C)C)NC(=O)[C@H](Cc2c[nH]c3ccccc23)NC(=O)[C@H](CC(=O)O)NC(=O)[C@H](Cc2ccc(OCC(=O)O)cc2)NC(=O)[C@H](CCCNC(=N)N)NC(=O)CSC[C@@H](C(=O)NCC(=O)NCCOCCOCC(=O)N[C@@H](CCCN)C(=O)NCCCCCCCCCCC(=O)O)NC(=O)[C@H](CO)NC(=O)[C@H](C(C)C)NC(=O)[C@H](CC2CCCCC2)NC(=O)[C@H](CCN)NC1=O [Compound 3230] ({CH2CO}-RY(Carboxymethyl)DWV[Bip]V[Orn][dL][Dab][Cha]VSCG[AEEA][Orn][Aun]-OH; thioether N-14)	8.9
CC(C)C[C@H]1NC(=O)[C@H](CCCN)NC(=O)[C@H](C(C)C)NC(=O)[C@H](Cc2ccc(-c3ccccc3)cc2)NC(=O)[C@H](C(C)C)NC(=O)[C@H](Cc2c[nH]c3ccccc23)NC(=O)[C@H](CC(=O)O)NC(=O)[C@H](Cc2ccc(C(=O)O)cc2)NC(=O)[C@H](CCCNC(=N)N)NC(=O)CSC[C@@H](C(=O)NCC(=O)NCCOCCOCC(=O)N[C@@H](CCCN)C(=O)NCCCCCCCCCCC(=O)O)NC(=O)[C@H](CO)NC(=O)[C@H](C(C)C)NC(=O)[C@H](CC2CCCCC2)NC(=O)[C@H](CCN)NC1=O [Compound 3231] ({CH2CO}-R[Phe(4-COOH)]DWV[Bip]V[Orn][dL][Dab][Cha]VSCG[AEEA][Orn][Aun]-OH; thioether N-14)	7.7
CC(C)C[C@H]1NC(=O)[C@H](CCCN)NC(=O)[C@H](C(C)C)NC(=O)[C@H](Cc2ccc(-c3ccccc3)cc2)NC(=O)[C@H](C(C)C)NC(=O)[C@H](Cc2c[nH]c3ccccc23)NC(=O)[C@H](CC(=O)O)NC(=O)[C@H](Cc2ccncc2)NC(=O)[C@H](Cc2ccc(OCC(=O)O)cc2)NC(=O)CSC[C@@H](C(=O)NCC(=O)NCCOCCOCC(=O)N[C@@H](CCCN)C(=O)NCCCCCCCCCCC(=O)O)NC(=O)[C@H](CN)NC(=O)[C@H](C(C)C)NC(=O)[C@H](CC2CCCCC2)NC(=O)[C@H](CCN)NC1=O [Compound 3232] ({CH2CO}-Y(Carboxymethyl)[4Pal]DWV[Bip]V[Orn][dL][Dab][Cha]V[Dap]CG[AEEA][Orn][Aun]-OH; thioether N-14)	10.1
CC(C)C[C@H]1NC(=O)[C@H](CCCN)NC(=O)[C@H](C(C)C)NC(=O)[C@H](Cc2ccc(-c3ccccc3)cc2)NC(=O)[C@H](C(C)C)NC(=O)[C@H](Cc2c[nH]c3ccccc23)NC(=O)[C@H](CC(=O)O)NC(=O)[C@H](Cc2ccc(OCC(=O)O)cc2)NC(=O)[C@H](Cc2ccncc2)NC(=O)CSC[C@@H](C(=O)NCC(=O)NCCOCCOCC(=O)N[C@@H](CCCN)C(=O)NCCCCCCCCCCC(=O)O)NC(=O)[C@H](CN)NC(=O)[C@H](C(C)C)NC(=O)[C@H](CC2CCCCC2)NC(=O)[C@H](CCN)NC1=O [Compound 3233] ({CH2CO}-[4Pal]Y(Carboxymethyl)DWV[Bip]V[Orn][dL][Dab][Cha]V[Dap]CG[AEEA][Orn][Aun]-OH; thioether N-14)	5.5
